# Data from patent US20230172206A1 (BASF SE, priority 2020, published 2023).
# Test system: Phakopsora pachyrhizi (F129L)
# Assay: Protective control of soybean rust on soybeans (PHAKPA P2)
# Format: in vivo
# Settings: protective P2, 4 ppm, F129L isolate
row,SMILES,% PHAKPA (F129L) Disease level P2 at 4 ppm [%]
1,CO/N=C(/C(=O)OC)c1cccc(C)c1CO/N=C(\C)c1cccc(Cl)c1C(F)(F)F [compound 421],100
2,CNC(=O)/C(=N/OC)c1cccc(C)c1CO/N=C(\C)c1cccc(Cl)c1C(F)(F)F [compound 422],30
3,CO/N=C(/C(=O)OC)c1cccc(C)c1CO/N=C(\C)c1ccc(C#N)cc1C(F)(F)F [compound 423],100
4,CNC(=O)/C(=N/OC)c1cccc(C)c1CO/N=C(\C)c1ccc(C#N)cc1C(F)(F)F [compound 424],100
5,CO/N=C(/C(=O)OC)c1cccc(C)c1CO/N=C(\C)c1ccc(-c2ccc(F)cc2)cc1C(F)(F)F [compound 425],27
6,CNC(=O)/C(=N/OC)c1cccc(C)c1CO/N=C(\C)c1ccc(-c2ccc(F)cc2)cc1C(F)(F)F [compound 426],7
7,CO/N=C(/C(=O)OC)c1cccc(C)c1CO/N=C(\C)c1c(Cl)cc(Cl)cc1OC(F)(F)F [compound 427],100
8,CNC(=O)/C(=N/OC)c1cccc(C)c1CO/N=C(\C)c1c(Cl)cc(Cl)cc1OC(F)(F)F [compound 428],70
9,CO/N=C(/C(=O)OC)c1cccc(C)c1CO/N=C(\C)c1ccc(Cl)c(Cl)c1C(F)(F)F [compound 429],83
10,CO/C=C(/C(=O)OC)c1cccc(C)c1CO/N=C(\C)c1ccc(Cl)c(Cl)c1C(F)(F)F [compound 430],22
11,CNC(=O)/C(=N/OC)c1cccc(C)c1CO/N=C(\C)c1ccc(Cl)c(Cl)c1C(F)(F)F [compound 431],32
12,CO/C=C(/C(=O)OC)c1cccc(C)c1CO/N=C(\C)c1ccc(-c2ccc(F)cc2)cc1C(F)(F)F [compound 432],12
13,CO/C=C(/C(=O)OC)c1cccc(C)c1CO/N=C(\C)c1ccc(-c2ccccc2)cc1OC(F)(F)F [compound 433],83
14,CNC(=O)/C(=N/OC)c1cccc(C)c1CO/N=C(\C)c1ccc(-c2ccccc2)cc1OC(F)(F)F [compound 435],93
15,CO/C=C(/C(=O)OC)c1cccc(C)c1CO/N=C(\C)c1c(Cl)cc(Cl)cc1OC(F)(F)F [compound 436],70
16,CO/C=C(/C(=O)OC)c1cccc(C)c1CO/N=C(\C)c1ccccc1CC(F)(F)F [compound 437],2
17,CNC(=O)/C(=N/OC)c1cccc(C)c1CO/N=C(\C)c1c(Cl)ccc(F)c1OC(F)(F)F [compound 440],93
18,CNC(=O)/C(=N/OC)c1cccc(C)c1CO/N=C(\C)c1c(Cl)ccc(Cl)c1OC(F)(F)F [compound 441],100

# Same assay, conditions: protective P2, 16 ppm, F129L isolate
row,SMILES,% PHAKPA (F129L) Disease level P2 at 16 ppm [%]
1,CO/N=C(/C(=O)OC)c1cccc(C)c1CO/N=C(\C)c1cccc(Cl)c1C(F)(F)F [compound 421],33
2,CNC(=O)/C(=N/OC)c1cccc(C)c1CO/N=C(\C)c1cccc(Cl)c1C(F)(F)F [compound 422],0
3,CO/N=C(/C(=O)OC)c1cccc(C)c1CO/N=C(\C)c1ccc(C#N)cc1C(F)(F)F [compound 423],57
4,CNC(=O)/C(=N/OC)c1cccc(C)c1CO/N=C(\C)c1ccc(C#N)cc1C(F)(F)F [compound 424],27
5,CO/N=C(/C(=O)OC)c1cccc(C)c1CO/N=C(\C)c1ccc(-c2ccc(F)cc2)cc1C(F)(F)F [compound 425],28
6,CNC(=O)/C(=N/OC)c1cccc(C)c1CO/N=C(\C)c1ccc(-c2ccc(F)cc2)cc1C(F)(F)F [compound 426],1
7,CO/N=C(/C(=O)OC)c1cccc(C)c1CO/N=C(\C)c1c(Cl)cc(Cl)cc1OC(F)(F)F [compound 427],90
8,CNC(=O)/C(=N/OC)c1cccc(C)c1CO/N=C(\C)c1c(Cl)cc(Cl)cc1OC(F)(F)F [compound 428],11
9,CO/N=C(/C(=O)OC)c1cccc(C)c1CO/N=C(\C)c1ccc(Cl)c(Cl)c1C(F)(F)F [compound 429],50
10,CO/C=C(/C(=O)OC)c1cccc(C)c1CO/N=C(\C)c1ccc(Cl)c(Cl)c1C(F)(F)F [compound 430],6
11,CNC(=O)/C(=N/OC)c1cccc(C)c1CO/N=C(\C)c1ccc(Cl)c(Cl)c1C(F)(F)F [compound 431],7
12,CO/C=C(/C(=O)OC)c1cccc(C)c1CO/N=C(\C)c1ccc(-c2ccc(F)cc2)cc1C(F)(F)F [compound 432],0
13,CO/C=C(/C(=O)OC)c1cccc(C)c1CO/N=C(\C)c1ccc(-c2ccccc2)cc1OC(F)(F)F [compound 433],67
14,CNC(=O)/C(=N/OC)c1cccc(C)c1CO/N=C(\C)c1ccc(-c2ccccc2)cc1OC(F)(F)F [compound 435],57
15,CO/C=C(/C(=O)OC)c1cccc(C)c1CO/N=C(\C)c1c(Cl)cc(Cl)cc1OC(F)(F)F [compound 436],15
16,CO/C=C(/C(=O)OC)c1cccc(C)c1CO/N=C(\C)c1ccccc1CC(F)(F)F [compound 437],0
17,CNC(=O)/C(=N/OC)c1cccc(C)c1CO/N=C(\C)c1c(Cl)ccc(F)c1OC(F)(F)F [compound 440],23
18,CNC(=O)/C(=N/OC)c1cccc(C)c1CO/N=C(\C)c1c(Cl)ccc(Cl)c1OC(F)(F)F [compound 441],43

# Test system: Phakopsora pachyrhizi (F129L)
# Assay: Protective control of soybean rust on soybeans (PHAKPA P6)
# Format: in vivo
# Settings: protective P6, 4 ppm, F129L isolate
row,SMILES,% PHAKPA (F129L) Disease level P6 at 4 ppm [%]
1,CO/N=C(/C(=O)OC)c1cccc(C)c1CO/N=C(\C)c1cccc(Cl)c1C(F)(F)F [compound 421],87
2,CNC(=O)/C(=N/OC)c1cccc(C)c1CO/N=C(\C)c1cccc(Cl)c1C(F)(F)F [compound 422],32
3,CO/N=C(/C(=O)OC)c1cccc(C)c1CO/N=C(\C)c1ccc(C#N)cc1C(F)(F)F [compound 423],93
4,CNC(=O)/C(=N/OC)c1cccc(C)c1CO/N=C(\C)c1ccc(C#N)cc1C(F)(F)F [compound 424],97
5,CO/N=C(/C(=O)OC)c1cccc(C)c1CO/N=C(\C)c1ccc(-c2ccc(F)cc2)cc1C(F)(F)F [compound 425],53
6,CNC(=O)/C(=N/OC)c1cccc(C)c1CO/N=C(\C)c1ccc(-c2ccc(F)cc2)cc1C(F)(F)F [compound 426],27
7,CO/N=C(/C(=O)OC)c1cccc(C)c1CO/N=C(\C)c1c(Cl)cc(Cl)cc1OC(F)(F)F [compound 427],60
8,CNC(=O)/C(=N/OC)c1cccc(C)c1CO/N=C(\C)c1c(Cl)cc(Cl)cc1OC(F)(F)F [compound 428],83
9,CO/N=C(/C(=O)OC)c1cccc(C)c1CO/N=C(\C)c1ccc(Cl)c(Cl)c1C(F)(F)F [compound 429],67
10,CO/C=C(/C(=O)OC)c1cccc(C)c1CO/N=C(\C)c1ccc(Cl)c(Cl)c1C(F)(F)F [compound 430],37
11,CNC(=O)/C(=N/OC)c1cccc(C)c1CO/N=C(\C)c1ccc(Cl)c(Cl)c1C(F)(F)F [compound 431],40
12,CO/C=C(/C(=O)OC)c1cccc(C)c1CO/N=C(\C)c1ccc(-c2ccc(F)cc2)cc1C(F)(F)F [compound 432],13
13,CO/C=C(/C(=O)OC)c1cccc(C)c1CO/N=C(\C)c1ccc(-c2ccccc2)cc1OC(F)(F)F [compound 433],80
14,CNC(=O)/C(=N/OC)c1cccc(C)c1CO/N=C(\C)c1ccc(-c2ccccc2)cc1OC(F)(F)F [compound 435],87
15,CO/C=C(/C(=O)OC)c1cccc(C)c1CO/N=C(\C)c1c(Cl)cc(Cl)cc1OC(F)(F)F [compound 436],73
16,CO/C=C(/C(=O)OC)c1cccc(C)c1CO/N=C(\C)c1ccccc1CC(F)(F)F [compound 437],8
17,CNC(=O)/C(=N/OC)c1cccc(C)c1CO/N=C(\C)c1c(Cl)ccc(F)c1OC(F)(F)F [compound 440],73
18,CNC(=O)/C(=N/OC)c1cccc(C)c1CO/N=C(\C)c1c(Cl)ccc(Cl)c1OC(F)(F)F [compound 441],97

# Same assay, conditions: protective P6, 16 ppm, F129L isolate
row,SMILES,% PHAKPA (F129L) Disease level P6 at 16 ppm [%]
1,CO/N=C(/C(=O)OC)c1cccc(C)c1CO/N=C(\C)c1cccc(Cl)c1C(F)(F)F [compound 421],57
2,CNC(=O)/C(=N/OC)c1cccc(C)c1CO/N=C(\C)c1cccc(Cl)c1C(F)(F)F [compound 422],2
3,CO/N=C(/C(=O)OC)c1cccc(C)c1CO/N=C(\C)c1ccc(C#N)cc1C(F)(F)F [compound 423],53
4,CNC(=O)/C(=N/OC)c1cccc(C)c1CO/N=C(\C)c1ccc(C#N)cc1C(F)(F)F [compound 424],50
5,CO/N=C(/C(=O)OC)c1cccc(C)c1CO/N=C(\C)c1ccc(-c2ccc(F)cc2)cc1C(F)(F)F [compound 425],40
6,CNC(=O)/C(=N/OC)c1cccc(C)c1CO/N=C(\C)c1ccc(-c2ccc(F)cc2)cc1C(F)(F)F [compound 426],10
7,CO/N=C(/C(=O)OC)c1cccc(C)c1CO/N=C(\C)c1c(Cl)cc(Cl)cc1OC(F)(F)F [compound 427],47
8,CNC(=O)/C(=N/OC)c1cccc(C)c1CO/N=C(\C)c1c(Cl)cc(Cl)cc1OC(F)(F)F [compound 428],20
9,CO/N=C(/C(=O)OC)c1cccc(C)c1CO/N=C(\C)c1ccc(Cl)c(Cl)c1C(F)(F)F [compound 429],43
10,CO/C=C(/C(=O)OC)c1cccc(C)c1CO/N=C(\C)c1ccc(Cl)c(Cl)c1C(F)(F)F [compound 430],17
11,CNC(=O)/C(=N/OC)c1cccc(C)c1CO/N=C(\C)c1ccc(Cl)c(Cl)c1C(F)(F)F [compound 431],12
12,CO/C=C(/C(=O)OC)c1cccc(C)c1CO/N=C(\C)c1ccc(-c2ccc(F)cc2)cc1C(F)(F)F [compound 432],3
13,CO/C=C(/C(=O)OC)c1cccc(C)c1CO/N=C(\C)c1ccc(-c2ccccc2)cc1OC(F)(F)F [compound 433],57
14,CNC(=O)/C(=N/OC)c1cccc(C)c1CO/N=C(\C)c1ccc(-c2ccccc2)cc1OC(F)(F)F [compound 435],60
15,CO/C=C(/C(=O)OC)c1cccc(C)c1CO/N=C(\C)c1c(Cl)cc(Cl)cc1OC(F)(F)F [compound 436],27
16,CO/C=C(/C(=O)OC)c1cccc(C)c1CO/N=C(\C)c1ccccc1CC(F)(F)F [compound 437],0
17,CNC(=O)/C(=N/OC)c1cccc(C)c1CO/N=C(\C)c1c(Cl)ccc(F)c1OC(F)(F)F [compound 440],23
18,CNC(=O)/C(=N/OC)c1cccc(C)c1CO/N=C(\C)c1c(Cl)ccc(Cl)c1OC(F)(F)F [compound 441],50
